How the values were obtained:
[1] = for vapor or sublimation pressure: Transpiration method
[2] = Molar enthalpy of transition or fusion; details: Crystal; DSC

CC(C)(O)C(=O)O [2-hydroxy-2-methylpropanoic acid]
Details | mass density [kg/m3]
[1], 293 K, 101.33 kPa, Crystal, Pycnometric method | 1240

[1]
Details | Normal melting temperature [°C] | vapor or sublimation pressure [kPa]
313.3 K, Crystal | – | 0.005081
318.2 K, Crystal | – | 0.008221
323.2 K, Crystal | – | 0.01418
328.1 K, Crystal | – | 0.02187
333.1 K, Crystal | – | 0.03606
338.1 K, Crystal | – | 0.05555
343.1 K, Crystal | – | 0.08884
347.8 K, Crystal | – | 0.139
356 K, Liquid | – | 0.2724
359.8 K, Liquid | – | 0.3463
363.7 K, Liquid | – | 0.4479
367.7 K, Liquid | – | 0.5693
369.3 K, Liquid | – | 0.6241
371.7 K, Liquid | – | 0.7211
373 K, Liquid | – | 0.7664
375.6 K, Liquid | – | 0.8814
377.1 K, Liquid | – | 0.9824
379.5 K, Liquid | – | 1.093
379.6 K, Liquid | – | 1.097
Crystal, DTA | 75 | –

Details | Molar enthalpy of transition or fusion [kJ/mol]
[2] | 17.6
